Results as given in article PMC12669672, “Structural insights into selective and dual antagonism of EP2 and EP4 prostaglandin receptors” (The EMBO Journal, 2025).
Where “and” joins values, the source holds several entries; their conditions need not be identical. Equal entries are not always repeated.

Key:
Experiment in all cases: GloSensor cAMP assay, inhibition of constitutive activity
Assay type in all cases: cell-based
[1] = biological target: T1, constitutively active EP4 S319A (Homo sapiens, UniProt P35408, S319A); settings: for ΔpIC50: no PGE2, pIC50 mutant - pIC50 WT, mean
T1 construct: The full-length EP2 or EP4 was cloned into the pcDNA3.1 vector (Invitrogen), incorporating an N-terminal FLAG tag; expressed in transfected cells; host or cells: AD293
T1 sequence (P35408 whole entry S319A): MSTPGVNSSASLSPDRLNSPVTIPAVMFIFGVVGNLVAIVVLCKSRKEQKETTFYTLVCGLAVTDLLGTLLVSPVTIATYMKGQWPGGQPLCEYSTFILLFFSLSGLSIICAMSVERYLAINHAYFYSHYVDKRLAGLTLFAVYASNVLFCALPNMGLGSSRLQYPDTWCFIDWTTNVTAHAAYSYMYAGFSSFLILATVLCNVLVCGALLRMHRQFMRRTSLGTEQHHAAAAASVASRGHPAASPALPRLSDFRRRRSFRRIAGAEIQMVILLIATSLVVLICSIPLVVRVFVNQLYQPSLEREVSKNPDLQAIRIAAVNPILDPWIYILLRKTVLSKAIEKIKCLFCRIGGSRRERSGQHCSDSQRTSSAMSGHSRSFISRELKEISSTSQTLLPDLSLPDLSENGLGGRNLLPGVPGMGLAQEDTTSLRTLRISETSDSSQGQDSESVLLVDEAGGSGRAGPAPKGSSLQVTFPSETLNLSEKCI
Procedure: (§1) The full-length EP2 or EP4 was cloned into the pcDNA3.1 vector (Invitrogen), incorporating an N-terminal FLAG tag. AD293 cells were seeded in six-well plates containing DMEM supplemented with 10% dialyzed FBS 1 day prior to transfection. Following overnight growth, cells were transfected with a 1:1 ratio of receptor construct and GloSensor22F cAMP biosensor (Promega) plasmids.
(§2) Twenty-four hours post-transfection, the cells were transferred to CO2-independent media containing 2% GloSensor cAMP Reagent (Promega) and distributed into 384-well assay plates at a density of 4000 cells per well in 10 μL. […] The plates were then incubated at 37 °C for an additional hour before luminescence measurements were taken using an EnVision plate reader.
(§3) Data analysis was performed using GraphPad Prism software v8.0.1. A nonlinear regression analysis, employing a sigmoidal dose–response model, was conducted to determine the Emax values and half-maximum inhibitory concentrations (IC50) for each compound tested.

[2] = biological target: T2, constitutively active EP4 V320A (Homo sapiens, UniProt P35408, V320A); settings: for ΔpIC50: no PGE2, pIC50 mutant - pIC50 WT, mean
T2 construct: The full-length EP2 or EP4 was cloned into the pcDNA3.1 vector (Invitrogen), incorporating an N-terminal FLAG tag; expressed in transfected cells; host or cells: AD293
T2 sequence (P35408 whole entry V320A): as the sequence (P35408 whole entry S319A) above, with A319S, V320A counted along it
Procedure: as §1, §2, §3

[3] = biological target: T3, constitutively active EP4 V72A (Homo sapiens, UniProt P35408, V72A); settings: for ΔpIC50: no PGE2, pIC50 mutant - pIC50 WT, mean
T3 construct: The full-length EP2 or EP4 was cloned into the pcDNA3.1 vector (Invitrogen), incorporating an N-terminal FLAG tag; expressed in transfected cells; host or cells: AD293
T3 sequence (P35408 whole entry V72A): as the sequence (P35408 whole entry S319A) above, with V72A, A319S counted along it
Procedure: as §1, §2, §3

[4] = biological target: T4, constitutively active EP4 WT (Homo sapiens, UniProt P35408)
T4 construct: The full-length EP2 or EP4 was cloned into the pcDNA3.1 vector (Invitrogen), incorporating an N-terminal FLAG tag; expressed in transfected cells; host or cells: AD293
T4 sequence (P35408 whole entry): as the sequence (P35408 whole entry S319A) above, with A319S counted along it
Procedure: as §1, §2, §3

In the case of `CCc1nc2c(C)nc(C)cc2n1-c1ccc(CCNC(=O)NS(=O)(=O)c2ccc(C)cc2)cc1` [Grapiprant], the IC50 [1] is reported as 0.0166 µM, the remaining activity at 0.1 µM ([1]; 1 h, Grapiprant log([M]) -7.00, EP4-S319A, read-out: % cAMP activity (normalized to WT)) is reported as 23.1% and the remaining activity at 0.01 µM ([1]; 1 h, Grapiprant log([M]) -8.00, EP4-S319A, read-out: % cAMP activity (normalized to WT)) is reported as 84.7%. For the same compound, the remaining activity at 0.001 µM ([1]; 1 h, Grapiprant log([M]) -9.00, EP4-S319A, read-out: % cAMP activity (normalized to WT)) was 130%, the remaining activity at 1 pM ([1]; 1 h, Grapiprant log([M]) -12.00, EP4-S319A, read-out: % cAMP activity (normalized to WT)) was 118% and the “Grapiprant cAMP activity (∆pIC50 from EP4 WT), Mean” value (shortened to “Grapiprant cAMP activity … Mean”) ([1]; S319A, Mean) was -0.598. For the same compound, the ΔpIC50 [1] was -0.60 ± 0.09, the ΔpIC50 ([1]; listed as grapiprant) was “reduced the potency” and the IC50 [2] was 0.0112 µM. The remaining activity at 0.1 µM ([2]; 1 h, Grapiprant log([M]) -7.00, EP4-V320A, read-out: % cAMP activity (normalized to WT)) was 7.66%, the remaining activity at 0.01 µM ([2]; 1 h, Grapiprant log([M]) -8.00, EP4-V320A, read-out: % cAMP activity (normalized to WT)) was 35.4% and the remaining activity at 0.001 µM ([2]; 1 h, Grapiprant log([M]) -9.00, EP4-V320A, read-out: % cAMP activity (normalized to WT)) was 48.1%. The remaining activity at 0.0001 µM ([2]; 1 h, Grapiprant log([M]) -10.00, EP4-V320A, read-out: % cAMP activity (normalized to WT)) was 61.4%, the remaining activity at 10 pM ([2]; 1 h, Grapiprant log([M]) -11.00, EP4-V320A, read-out: % cAMP activity (normalized to WT)) was 56.1% and the remaining activity at 1 pM ([2]; 1 h, Grapiprant log([M]) -12.00, EP4-V320A, read-out: % cAMP activity (normalized to WT)) was 50.8%. The “Grapiprant cAMP activity … Mean” value ([2]; V320A, Mean) was -0.388, the ΔpIC50 [2] was -0.39 ± 0.12 and the ΔpIC50 ([2]; listed as grapiprant) was “reduced the potency”. The IC50 [3] was 0.0186 µM, the remaining activity at 0.1 µM ([3]; 1 h, Grapiprant log([M]) -7.00, EP4-V72A, read-out: % cAMP activity (normalized to WT)) was 8.15% and the remaining activity at 0.01 µM ([3]; 1 h, Grapiprant log([M]) -8.00, EP4-V72A, read-out: % cAMP activity (normalized to WT)) was 28%. For the same compound, the remaining activity at 0.001 µM ([3]; 1 h, Grapiprant log([M]) -9.00, EP4-V72A, read-out: % cAMP activity (normalized to WT)) was 48.8%, the remaining activity at 0.0001 µM ([3]; 1 h, Grapiprant log([M]) -10.00, EP4-V72A, read-out: % cAMP activity (normalized to WT)) was 35.6% and the remaining activity at 10 pM ([3]; 1 h, Grapiprant log([M]) -11.00, EP4-V72A, read-out: % cAMP activity (normalized to WT)) was 41%. The remaining activity at 1 pM ([3]; 1 h, Grapiprant log([M]) -12.00, EP4-V72A, read-out: % cAMP activity (normalized to WT)) was 39%, the “Grapiprant cAMP activity … Mean” value ([3]; V72A, Mean) was -0.652 and the “Grapiprant cAMP activity (∆pIC50 from EP4 WT)” value ([3]; V72A, single experiments 1st-3rd) was -0.771 and -0.507 and -0.679. For the same compound, the ΔpIC50 [3] was -0.65 ± 0.08, the ΔpIC50 ([3]; listed as grapiprant) was “reduced the potency” and the IC50 [4] was 0.00427 µM. The remaining activity at 0.1 µM ([4]; 1 h, Grapiprant log([M]) -7.00, EP4-WT, read-out: % cAMP activity (normalized to WT)) was 4.26%, the remaining activity at 0.01 µM ([4]; 1 h, Grapiprant log([M]) -8.00, EP4-WT, read-out: % cAMP activity (normalized to WT)) was 24.2% and the remaining activity at 0.001 µM ([4]; 1 h, Grapiprant log([M]) -9.00, EP4-WT, read-out: % cAMP activity (normalized to WT)) was 84.9%. For the same compound, the remaining activity at 0.0001 µM ([4]; 1 h, Grapiprant log([M]) -10.00, EP4-WT, read-out: % cAMP activity (normalized to WT)) was 92.5%, the remaining activity at 10 pM ([4]; 1 h, Grapiprant log([M]) -11.00, EP4-WT, read-out: % cAMP activity (normalized to WT)) was 101% and the remaining activity at 1 pM ([4]; 1 h, Grapiprant log([M]) -12.00, EP4-WT, read-out: % cAMP activity (normalized to WT)) was 101%. The “Grapiprant cAMP activity (∆pIC50 from EP4 WT)” value ([4]; WT, single experiments 1st-3rd) was 0.061 and -0.077 and -0.012.
